Experimental data from US20110065749A1, “METHOD AND PHARMACEUTICAL COMPOSITION FOR TREATMENT OF MENTAL DISORDERS” (ACTIVE CO. LTD., priority 2008, published 2011).
Structures can show the parent of a compound that is named as a salt.

Key:
Type in all cases: in vivo, human
Alcoholism = experiment: Case 6: alcoholism patient; details: before Cephadol
Text: Case 6: Alcoholism Patient was a office worker, who was drinking 1 to 2 liters of beer and 3 to 5 glasses of distilled spirit or whisky with water every day. They were drinking alcohol in daytime on Sundays, and suffering from a complication of liver dysfunction.

[1] = test system: manic state of bipolar I disorder; experiment: Case 3: manic-depressive illness patient; details: 1,200 mg, before Cephadol
Description: Case 3: Manic-Depressive Illness Patient was a person, who had continuously been in a manic state of bipolar I disorder for over one month. An antiepileptic drug, or 1,200 mg of Limas®, was ineffective. Antipsychotic drugs were not usable due to significant side effects. […] When they discontinued the administration of Cephadol®, the manic state appeared after 5 days.

Fibromyalgia [2] = experiment: Case 18: fibromyalgia (4) patient; details: before Cephadol
Text: Case 18: Fibromyalgia (4)
A person (housewife) is a patient with depression, having received regular medical treatment since seven years ago. […] However, a diagnosis with autoimmune disease or inflammatory disease was negative from their blood test. Due to back pain and fingertip pain, they were unable to make household work, and it was painful for them to hold even a light object by hand. They had pain at 15 points among the 18 tender points of the whole body, and was diagnosed with fibromyalgia. […] They had to stay in bed all day long, and such a condition lasted for the long term.

Fibromyalgia [3] = experiment: Case 16: fibromyalgia (2) patient; details: before Cephadol
Text: […] There were persistent systemic malaise, lassitude, depressed mood, sleeplessness, neck stiffness and systemic pain. Their score of depression on Hamilton D scale was 25 to 28. No hematological abnormality was detected. As a result of overall judgment based on examinations including a tender point examination, they were diagnosed as having fibromyalgia. They were unresponsive to tricyclic or tetracyclic antidepressants, SSRIs, SNRIs, and Moclobemide. Then, they continued the treatment with 60 mg/day fluoxetine. […] It was concluded that the onset of their depression was due to the systemic pain, and the depression was improved by the drastic improvement of the systemic pain.

depression = experiment: Case 9: depressed symptoms patient, HAMD; details: 40 mg, before Cephadol
Text: For evaluation of the state of depression, for example, Hamilton's rating scale for depression (HAMD) is available. The HAMD was developed by Max Hamilton in 1960 for the purpose of measuring the severity of a patient diagnosed with depression (Hamilton, M., Journal of Neurology, Neurosurgery & Psychiatry, 23-56-62 (1960) and Hamilton, M., “Development of rating scale for primary depressive illness”, British Journal of Social and Clinical Psychology, 6: 278-296 (1967)). In view of its high usefulness, it is a representative scale of evaluation for depression, widely used in clinical researches and practices. The 17 item version is used for clinical trials of antidepressants in Japan, whereas the 21 item version and the 24 item version are used in Europe or other countries.
When the severity is calculated using Hamilton's rating scale for depression (HAMD), each item is evaluated with three grades of 0-2, or five grades of 0-4. For example, the case is diagnosed as severe where the point is 20 or higher and, as the point decreases, the symptom is diagnosed as being improved.
Case 9: Depressed Symptoms
Administration to the patient of 75 mg/day Cephadol® reduced the HAMD score from 20 points to 7 points after 3 days.

Bulimia = experiment: Case 8: bulimia (2) patient; details: 40 mg
Text: Patient was a person, who had been suffering from bulimia. The bulimia persisted even after their marriage and childbearing.

Fibromyalgia [4] = experiment: Case 15: fibromyalgia (1) patient; details: maximum doses, three years, before Cephadol
Description: They then visited the inventor's clinic. When the inventor started the treatment with 75 mg/day Cephadol®, systemic pain of the patient was improved in two days. […] As a result, they became able to perform usual household work, go outside, and further make a trip.

Alzheimer-Type Dementia = experiment: Case 4: Alzheimer-type dementia patient
Text: Case 4: Alzheimer-Type Dementia

N#CN [Cyanamide]
efficacy of earlier drugs on alcoholism (Alcoholism): without any efficacy

O=C([O-])[O-].[Li+].[Li+] [Limas®]
efficacy on manic state [1]: ineffective

CCN(CC)C(=O)C1(c2ccccc2)CC1CN (stereo not shown) [Milnaciplan]
back pain (Fibromyalgia [2]): rather deteriorated their back pain

O=C(NCCN1CCOCC1)c1ccc(Cl)cc1 [Moclobemide]
response to earlier drugs (Fibromyalgia [3]): unresponsive

Fc1ccc([C@@H]2CCNC[C@H]2COc2ccc3c(c2)OCO3)cc1 [Paxil®, paroxetine]
depression (depression): without any improvement

CNCCC(Oc1ccc(C(F)(F)F)cc1)c1ccccc1.Cl (stereo not shown) [Prozac®]
bulimia (Bulimia; before Cephadol): slightly improved the bulimia
frequency of overeating and emesis (Bulimia; previously two to three times a day): reduced to once daily

CN(C)CCC=C1c2ccccc2CCc2ccccc21 [Triptanol]
response of fibromyalgia to earlier medicines (Fibromyalgia [4]): without any improvement

COc1cc2c(cc1OC)C(=O)C(CC1CCN(Cc3ccccc3)CC1)C2 (stereo not shown) [donepezil hydrochloride]
dementia (Alzheimer-Type Dementia; donepezil hydrochloride together with 50 mg Cephadol before sleeping): significant improvement of the dementia
side effect that made treatment difficult (Alzheimer-Type Dementia; donepezil hydrochloride without Cephadol): excitatory side effect
